Results reported in ChEMBL document CHEMBL1201862, “PubChem BioAssay data set” (2004).
The source made the active and inactive calls. *1 amine or outer side, *2 acyl side, *3 side chain or, on linkers, in order; H or OH if unused. Where a SMILES comes first, the peptide text is derived from it. [ ]: non-standard residue; d: D form. X2 = CCC[C@@H](N[*:1])[C@H](C)C(=O)O[C@H](C(=O)[*:2])[C@@H](C)CC; X1 = CC(N[*:1])C(=O)C(C)(C)C(=O)[*:2]; NMeY = CN[C@@H](Cc1ccc(O)cc1)C(=O)O; NMeL = CN[C@@H](CC(C)C)C(=O)O; NMeV = CN[C@H](C(=O)O)C(C)C; NMeA = CN[C@@H](C)C(=O)O

Key:
Vero [1] = test: cells; type: functional, cell-based; conditions: Chlorocebus sabaeus
Vero [2] = test: cells; type: functional; conditions: Chlorocebus sabaeus
[3] = biological target: T1, Short transient receptor potential channel 4 (Mus musculus, UniProt Q9QUQ5); test: block of DAMGO-driven TRPC4 calcium entry – cell-based, HEK293 TRPC4/mu-opioid, Fluo-4 calcium, dose response (AID 434942); type: functional;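 further: potency of inhibitors blocking the TRPC4 calcium response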
T1 sequence (Q9QUQ5 whole entry): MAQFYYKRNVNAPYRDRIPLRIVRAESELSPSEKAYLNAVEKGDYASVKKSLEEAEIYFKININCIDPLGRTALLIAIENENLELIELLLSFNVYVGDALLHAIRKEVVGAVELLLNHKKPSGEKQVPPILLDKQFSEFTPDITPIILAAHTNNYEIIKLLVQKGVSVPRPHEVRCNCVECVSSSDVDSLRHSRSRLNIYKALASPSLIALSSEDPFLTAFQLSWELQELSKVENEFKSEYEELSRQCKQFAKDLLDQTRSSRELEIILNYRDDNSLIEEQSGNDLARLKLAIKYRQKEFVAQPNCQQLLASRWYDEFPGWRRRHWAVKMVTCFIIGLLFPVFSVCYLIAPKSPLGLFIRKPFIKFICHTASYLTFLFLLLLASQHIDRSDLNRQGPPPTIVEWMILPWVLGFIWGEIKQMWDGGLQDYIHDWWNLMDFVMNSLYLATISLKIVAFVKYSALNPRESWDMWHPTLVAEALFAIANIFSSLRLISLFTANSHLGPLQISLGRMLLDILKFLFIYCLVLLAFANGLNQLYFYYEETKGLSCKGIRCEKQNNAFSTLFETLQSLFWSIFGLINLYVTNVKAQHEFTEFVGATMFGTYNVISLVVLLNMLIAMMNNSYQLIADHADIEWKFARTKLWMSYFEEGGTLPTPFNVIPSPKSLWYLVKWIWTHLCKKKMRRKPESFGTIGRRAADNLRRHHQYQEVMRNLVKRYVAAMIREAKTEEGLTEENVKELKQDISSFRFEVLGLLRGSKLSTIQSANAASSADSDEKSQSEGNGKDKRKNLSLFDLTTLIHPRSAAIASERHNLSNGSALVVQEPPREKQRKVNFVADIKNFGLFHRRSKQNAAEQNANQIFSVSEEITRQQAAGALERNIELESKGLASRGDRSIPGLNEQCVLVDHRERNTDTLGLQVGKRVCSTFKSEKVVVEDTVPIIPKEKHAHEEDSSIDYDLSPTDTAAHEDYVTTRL

Protein RecA = biological target: T2, Protein RecA (Mycobacterium tuberculosis, UniProt P9WHJ3); test: Fluorescence Cell-Free Homogeneous Dose Retest to Identify Inhibitors of RecA-Intein Splicing Activity. [Related pubchem assays (depositor defined):AID2097, AID2223, AID489010, AID492950]; type: functional
T2 sequence (P9WHJ3 whole entry): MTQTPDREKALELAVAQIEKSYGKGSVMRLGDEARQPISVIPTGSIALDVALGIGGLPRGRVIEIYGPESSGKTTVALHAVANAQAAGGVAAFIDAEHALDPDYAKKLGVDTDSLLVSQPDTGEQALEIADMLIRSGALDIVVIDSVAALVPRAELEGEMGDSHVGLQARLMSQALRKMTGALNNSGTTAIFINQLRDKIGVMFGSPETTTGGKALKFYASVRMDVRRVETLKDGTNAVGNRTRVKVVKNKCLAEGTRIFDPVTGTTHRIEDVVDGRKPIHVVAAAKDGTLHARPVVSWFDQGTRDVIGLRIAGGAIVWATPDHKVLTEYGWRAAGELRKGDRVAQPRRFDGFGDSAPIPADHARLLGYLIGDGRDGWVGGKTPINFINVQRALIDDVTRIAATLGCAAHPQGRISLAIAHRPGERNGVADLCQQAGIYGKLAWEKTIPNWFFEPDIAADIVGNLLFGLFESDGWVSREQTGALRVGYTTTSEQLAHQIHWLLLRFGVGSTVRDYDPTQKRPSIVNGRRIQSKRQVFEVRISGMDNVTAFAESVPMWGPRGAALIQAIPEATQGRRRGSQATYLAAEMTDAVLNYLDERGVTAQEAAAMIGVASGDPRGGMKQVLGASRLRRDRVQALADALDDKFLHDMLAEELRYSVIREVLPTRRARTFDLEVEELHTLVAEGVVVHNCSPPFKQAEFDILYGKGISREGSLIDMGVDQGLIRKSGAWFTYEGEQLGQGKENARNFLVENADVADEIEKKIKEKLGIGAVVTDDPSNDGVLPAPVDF

[4] = biological target: T3, Replicative DNA helicase DnaB (Mycobacterium tuberculosis, UniProt P9WMR3); test: DnaB intein splicing inhibitors, dose response, biochemical, cell-free fluorescence (AID 449749); type: functional
T3 sequence (P9WMR3 whole entry): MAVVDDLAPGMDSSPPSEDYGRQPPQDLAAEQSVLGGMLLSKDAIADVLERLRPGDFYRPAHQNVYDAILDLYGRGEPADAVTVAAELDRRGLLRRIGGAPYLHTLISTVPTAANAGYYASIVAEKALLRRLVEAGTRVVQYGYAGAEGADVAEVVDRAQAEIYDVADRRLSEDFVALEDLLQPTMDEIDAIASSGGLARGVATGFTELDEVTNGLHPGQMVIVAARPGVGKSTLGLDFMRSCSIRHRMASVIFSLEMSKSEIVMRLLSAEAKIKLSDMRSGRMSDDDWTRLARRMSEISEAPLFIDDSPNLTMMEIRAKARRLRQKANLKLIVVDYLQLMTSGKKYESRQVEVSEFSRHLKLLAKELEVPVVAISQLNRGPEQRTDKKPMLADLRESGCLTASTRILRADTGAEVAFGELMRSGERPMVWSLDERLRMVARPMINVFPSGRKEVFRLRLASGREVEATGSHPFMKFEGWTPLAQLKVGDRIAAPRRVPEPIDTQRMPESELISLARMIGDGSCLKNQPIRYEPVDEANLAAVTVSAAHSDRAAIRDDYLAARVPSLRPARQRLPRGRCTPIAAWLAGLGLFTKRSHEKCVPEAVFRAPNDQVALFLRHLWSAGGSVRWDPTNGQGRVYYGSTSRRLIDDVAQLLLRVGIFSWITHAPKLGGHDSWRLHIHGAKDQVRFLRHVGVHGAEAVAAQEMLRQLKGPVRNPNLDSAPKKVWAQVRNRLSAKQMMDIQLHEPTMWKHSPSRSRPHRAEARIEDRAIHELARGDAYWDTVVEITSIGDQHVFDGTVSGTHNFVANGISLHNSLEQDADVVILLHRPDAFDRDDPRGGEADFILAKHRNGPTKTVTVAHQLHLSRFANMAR

BJ [5] = test: cells; type: functional, cell-based; conditions: Homo sapiens
BJ [6] = test: BJ-TERT-LT-ST fibroblast viability loss – cell-based, RAS-independent, luminescence, dose response (AID 1935); type: functional; conditions: Homo sapiens;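 further: BJ fibroblasts immortalized with TERT plus LT and ST oncogenes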
[7] = biological target: T4, Microphthalmia-associated transcription factor (Homo sapiens, UniProt O75030); test: reducers of TRPM1 reporter luminescence, concentration series – cell-based, SK-MEL-5, cherry-picked, set 3, MITF inhibitor project, dose response (AID 493073); type: functional;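 further: SK-MEL-5 melanoma cells with luciferase driven by the MITF target TRPM1 promoter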
T4 sequence (O75030 whole entry): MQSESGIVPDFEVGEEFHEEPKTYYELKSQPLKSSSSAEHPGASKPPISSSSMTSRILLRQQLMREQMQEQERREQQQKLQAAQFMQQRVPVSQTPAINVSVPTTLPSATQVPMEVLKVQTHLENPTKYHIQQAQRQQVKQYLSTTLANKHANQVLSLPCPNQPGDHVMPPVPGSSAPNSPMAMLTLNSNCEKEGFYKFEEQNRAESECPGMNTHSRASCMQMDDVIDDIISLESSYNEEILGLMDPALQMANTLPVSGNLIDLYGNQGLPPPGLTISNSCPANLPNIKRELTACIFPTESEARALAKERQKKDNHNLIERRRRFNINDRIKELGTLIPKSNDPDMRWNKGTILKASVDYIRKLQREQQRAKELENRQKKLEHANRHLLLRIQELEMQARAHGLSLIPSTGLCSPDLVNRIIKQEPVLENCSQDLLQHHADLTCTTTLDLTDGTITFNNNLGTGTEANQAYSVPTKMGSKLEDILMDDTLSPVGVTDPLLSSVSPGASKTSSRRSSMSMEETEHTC

BJ [8] = test: BJ-TERT fibroblast viability loss – cell-based, RAS-independent, luminescence, dose response (AID 1933); type: functional; conditions: Homo sapiens
[9] = DRD fibroblast viability loss – cell-based, non-viral oncogenic, luminescence, dose response (AID 1934); type: functional; conditions: Homo sapiens
[10] = microbe, parasite or virus in culture; type: functional; conditions: Mycobacterium tuberculosis
[11] = HEK-293T viability loss after treatment – luminescence, T-cell screen hits, cytotoxicity control for TCR NF-kB inhibitor project, dose response (AID 489026); type: functional, cell-based;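 further: cells exposed to compound about 14 hours before the viability readout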
[12] = biological target: T1, Short transient receptor potential channel 4; test: calcium entry via TRPC4 opening agents – cell-based, HEK293 TRPC4/mu-opioid, Fluo-4 calcium, dose response (AID 434937); type: functional
[13] = biological target: T5, DNA repair protein RAD52 homolog (Homo sapiens, UniProt P43351); type: functional, biochemical
T5 sequence (P43351 whole entry): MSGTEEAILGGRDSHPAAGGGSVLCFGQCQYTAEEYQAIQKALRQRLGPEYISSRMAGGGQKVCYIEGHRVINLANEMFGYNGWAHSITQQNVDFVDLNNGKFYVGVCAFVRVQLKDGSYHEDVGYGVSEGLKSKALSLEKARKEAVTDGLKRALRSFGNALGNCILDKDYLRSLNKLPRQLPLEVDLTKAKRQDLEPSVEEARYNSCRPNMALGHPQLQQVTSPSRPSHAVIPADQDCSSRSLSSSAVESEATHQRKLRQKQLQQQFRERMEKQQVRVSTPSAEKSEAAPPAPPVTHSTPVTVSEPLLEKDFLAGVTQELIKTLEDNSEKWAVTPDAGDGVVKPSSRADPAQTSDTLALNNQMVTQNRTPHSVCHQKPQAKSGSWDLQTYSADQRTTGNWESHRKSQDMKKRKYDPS

Cc1cc(N2CCN(Cc3nc(-c4ccc(Cl)cc4)oc3C)CC2)cc(C)n1
IC50 (Vero [1]): 23.7 µM (active) | CC50 (Vero [2]): > 25 µM (active)

c1ccc2c(N3CCCCC3)nc(N3CCOCC3)nc2c1
EC50 [3]: 1.88 µM (active)

Cc1ccc2c(c1)Oc1ccc(NC(=O)CCl)cc1C(=O)N2
EC50 (Protein RecA): 4.53 µM (active) | AC50 [4]: 15.6 µM (active) | EC50 (BJ [5]): 2.88 µM (inconclusive) | EC50 (BJ [6]): 4.2 µM (inconclusive) | AC50 [7]: 10.1 µM (active) | EC50 (BJ [8]): 2.99 µM (active) | EC50 [9]: 6.28 µM (active) | CC50 [10]: 2.96 µM (active) | IC50 [11]: 17.3 µM (active)

CCCN(CCC)C1=CC(=[N+]2CCCC2)CC(C)(C)C1
AC50 [7]: 2.02 µM (active) | IC50 [11]: > 80 µM (inactive)

COc1cccc(-c2nn(-c3ccccc3)cc2CN(C)C(C)c2ccncn2)c1 (stereo unspecified)
EC50 [3]: 2.99 µM (active) | EC50 [12]: 6.68 µM (active)

CCOc1ccc2c(C)nc(NC3=NC(C)=CC(C)(C)N3)nc2c1
EC50 [3]: 1.68 µM (active) | AC50 [13]: 4.06 µM (active)

CCOc1ccccc1N(CC)C(=O)c1nn(C)c2c1CSc1ccccc1-2
EC50 [3]: 2.99 µM (active)

COC(=O)c1[nH]c2c(c1C)C(=O)CC(c1cccc(OC)c1)C2 (stereo unspecified)
EC50 (BJ [5]): 1.62 µM (active) | EC50 (BJ [6]): 0.665 µM (active) | EC50 (BJ [8]): 0.773 µM (active) | EC50 [9]: 0.619 µM (active) | IC50 [11]: > 80 µM (inactive)

CC(=O)Nc1ccc(S(=O)(=O)N2CCSc3ccccc32)cc1
IC50 [11]: > 80 µM (inactive)

CCC[C@H]1NC(=O)[C@H](C)N(C)C(=O)C(C)(C)C(=O)C(C)NC(=O)[C@H](Cc2ccc(OC)cc2)N(C)C(=O)[C@H](C(C)C)N(C)C(=O)CNC(=O)[C@H](CC(C)C)N(C)C(=O)CNC(=O)[C@H]([C@@H](C)CC)OC(=O)[C@H]1C (stereo partly specified) (cyclo(G[NMeL]G[NMeV][NMeY](Me)[X1][NMeA][X2]))
IC50 [11]: > 80 µM (inactive)
